Experimental data published in the supplement of paper PMC10307832.

Key:
Assay in all cases: relative viability (nuclei count vs DMSO), 5 days (fraction); higher = more cells survive
[1] = compound: CC[C@H](C)N1C=C(C2=C(C=C(C=C21)C3=CN=C(C=C3)N4CCNCC4)C(=O)NCC5=C(C=C(NC5=O)C)C)C [GSK126] + COc1cc2c(Oc3ccc(NC(=O)C4(C(=O)Nc5ccc(F)cc5)CC4)cc3F)ccnc2cc1OCCCN1CCOCC1 [Foretinib] (partner 0.25 µM)
In short: (§1)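 Five library-drug doses in √10 steps were combined with a fixed anchor-drug dose, or a single drug was given alone, by pin tool to lung cancer cell lines in 1536-well plates the day after seeding. Nuclei were stained and counted after 5 days. Relative viability is the nuclei count in treated wells over that in vehicle wells, taken as the median of duplicate plates.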

[2] = compound: NS(=O)(=O)OC[C@@H]1C[C@@H](n2ccc3c(N[C@H]4CCc5ccccc54)ncnc32)C[C@@H]1O [MLN4924] + CC(C)C[C@H](NC(=O)[C@H](Cc1ccccc1)NC(=O)c1cnccn1)B(O)O [Bortezomib] (partner 0.002 µM)
In short: as §1

[3] = compound: C1CC(C1)(C(=O)O)C(=O)O.[NH2-].[NH2-].[Pt+2] [Carboplatin] + COc1cc2c(Oc3ccc(NC(=O)C4(C(=O)Nc5ccc(F)cc5)CC4)cc3F)ccnc2cc1OCCCN1CCOCC1 [Foretinib] (partner 0.25 µM)
In short: as §1

[4] = compound: NS(=O)(=O)OC[C@@H]1C[C@@H](n2ccc3c(N[C@H]4CCc5ccccc54)ncnc32)C[C@@H]1O [MLN4924] + CCNC(=O)c1noc(-c2cc(C(C)C)c(O)cc2O)c1-c1ccc(CN2CCOCC2)cc1 [Luminespib] (partner 0.01 µM)
In short: as §1

Row | Cell Line | relative viability ([1]; first compound 0.08 µM) | relative viability ([1]; first compound 0.253 µM) | relative viability ([1]; first compound 0.8 µM) | relative viability ([1]; first compound 2.53 µM) | relative viability ([1]; first compound 8 µM) | relative viability ([2]; first compound 0.04 µM) | relative viability ([2]; first compound 0.1265 µM) | relative viability ([2]; first compound 0.4 µM) | relative viability ([2]; first compound 1.265 µM) | relative viability ([2]; first compound 4 µM) | relative viability ([3]; first compound 0.08 µM) | relative viability ([3]; first compound 0.253 µM) | relative viability ([3]; first compound 0.8 µM) | relative viability ([3]; first compound 2.53 µM) | relative viability ([3]; first compound 8 µM) | relative viability ([4]; first compound 0.04 µM) | relative viability ([4]; first compound 0.1265 µM) | relative viability ([4]; first compound 0.4 µM) | relative viability ([4]; first compound 1.265 µM) | relative viability ([4]; first compound 4 µM)
1 | HOP-62 | 1.11 | 1.08 | 1.01 | 1.21 | 1.04 | 0.392 | 0.402 | 0.117 | 0.0531 | 0.0923 | 0.984 | 1 | 1.07 | 1.04 | 0.994 | 0.811 | 0.579 | 0.264 | 0.126 | 0.12
2 | NCI-H727 | 1.09 | 0.981 | 0.888 | 1.01 | 0.744 | 0.624 | 0.512 | 0.313 | 0.267 | 0.225 | 1.1 | 0.967 | 0.9 | 0.792 | 0.637 | 0.31 | 0.382 | 0.368 | 0.383 | 0.235
3 | COR-L 105 | 1.23 | 1.08 | 0.989 | 0.871 | 0.99 | 0.629 | 0.396 | 0.252 | 0.242 | 0.41 | 0.986 | 0.993 | 0.902 | 0.897 | 0.578 | 0.494 | 0.553 | 0.283 | 0.201 | 0.236
4 | PC-3 [JPC-3] | 1.02 | 1.02 | 1.02 | 1.01 | 0.997 | 0.857 | 0.819 | 0.573 | 0.328 | 0.282 | 1.08 | 1.03 | 1 | 1.05 | 0.933 | 0.799 | 0.773 | 0.552 | 0.346 | 0.327
5 | NCI-H2347 | 0.842 | 0.861 | 1.07 | 1.25 | 1.35 | 0.79 | 0.933 | 0.532 | 0.392 | 0.395 | 1.51 | 1.01 | 1.14 | 1.23 | 0.788 | 0.397 | 0.351 | 0.575 | 0.332 | 0.255
6 | SW 1573 | 1.09 | 1.04 | 0.929 | 1.05 | 0.949 | 1.03 | 0.932 | 0.249 | 0.0788 | 0.0726 | 0.883 | 1.03 | 1.01 | 0.901 | 0.799 | 0.259 | 0.365 | 0.0849 | 0.0812 | 0.0892
7 | NCI-H838 | 1.1 | 1.07 | 0.929 | 0.992 | 0.954 | 0.807 | 0.456 | 0.315 | 0.0967 | 0.122 | 1.16 | 1.06 | 0.934 | 0.931 | 0.669 | 0.23 | 0.279 | 0.173 | 0.12 | 0.125
8 | A-427 | 1.31 | 0.999 | 1.07 | 1.1 | 1.13 | 0.622 | 0.447 | 0.231 | 0.195 | 0.197 | 1.16 | 1.15 | 1.03 | 0.992 | 1.16 | 0.465 | 0.245 | 0.263 | 0.178 | 0.216
9 | CAL-12T | 1.13 | 1.12 | 1.09 | 1 | 1.25 | – | 0.971 | 0.659 | 0.369 | 0.22 | 1.1 | 1.06 | 1.2 | 1.02 | 1.07 | 0.488 | 0.56 | 0.262 | 0.192 | 0.307
10 | NCI-H460 | 1.04 | 0.998 | 0.977 | 0.997 | 1.06 | 0.998 | 1.1 | 1.04 | 0.203 | 0.0203 | 0.98 | 1.03 | 0.968 | 0.716 | 0.322 | 0.0434 | 0.0335 | 0.0273 | 0.0208 | 0.0178
11 | ABC-1 | 1.31 | 1.15 | 0.955 | 1.14 | 0.959 | 0.344 | 0.331 | 0.259 | 0.274 | 0.211 | 1.28 | 1.09 | 1.1 | 0.769 | 0.398 | 1.14 | 0.548 | 0.306 | 0.184 | 0.24
12 | NCI-H2085 | 1.09 | 1.04 | 0.855 | 1.12 | 1.24 | 1.09 | 1.09 | 1.1 | 0.76 | 0.648 | 1.05 | 0.933 | 1.1 | 0.899 | 0.691 | 0.422 | 0.407 | 0.534 | 0.375 | 0.311
13 | NCI-H650 | 1.15 | 1.02 | 0.954 | 1.02 | 1.03 | 0.439 | 0.456 | 0.233 | 0.179 | 0.202 | 1.01 | 1.14 | 0.941 | 0.91 | 0.614 | 0.86 | 0.543 | 0.367 | 0.17 | 0.162
14 | LC-2-ad | 1.08 | 0.971 | 0.915 | 0.995 | 1.07 | 0.943 | 0.859 | 0.41 | 0.226 | 0.104 | 1.03 | 1.04 | 0.994 | 0.874 | 0.679 | 0.959 | 0.764 | 0.507 | 0.282 | 0.274
15 | NCI-H322M | 0.942 | 1.03 | 0.958 | 1.13 | 0.972 | 1.24 | 1.36 | 1.2 | 0.302 | 0.463 | 1.12 | 0.943 | 0.895 | 0.861 | 0.77 | 1.25 | 1.11 | 0.989 | 0.488 | 0.311
16 | LCLC-97TM1 | 1.03 | 0.942 | 0.954 | 1.06 | 0.994 | 0.403 | 0.46 | 0.107 | 0.046 | 0.0727 | 1 | 0.956 | 0.892 | 0.868 | 0.765 | 0.586 | 0.343 | 0.439 | 0.128 | 0.109
17 | NCI-H596 | 0.854 | 0.497 | 1.08 | 0.975 | 0.809 | 1.08 | 1.02 | 0.709 | 0.885 | 0.974 | 0.828 | 1.01 | 0.707 | 0.59 | 0.431 | 0.942 | 0.933 | – | 0.768 | 0.767
18 | NCI-H1755 | 1.02 | 0.975 | 0.962 | 0.924 | 0.968 | 0.898 | 0.743 | 0.443 | 0.21 | 0.166 | 1.01 | 0.897 | 0.899 | 0.929 | 0.86 | 0.441 | 0.443 | 0.238 | 0.221 | 0.231
19 | H3255 | 1.07 | 0.887 | 0.894 | 0.987 | 0.983 | 0.559 | 0.707 | 0.262 | 0.2 | 0.32 | 0.905 | 0.872 | 0.875 | 0.898 | 0.836 | 0.843 | 0.73 | 0.541 | 0.288 | 0.292
20 | NCI-H23 | 1 | 0.313 | 0.901 | 1.03 | 0.98 | 0.94 | 0.617 | 0.376 | 0.165 | 0.144 | 1.02 | 1.01 | 0.886 | 0.846 | 0.826 | 0.231 | 0.175 | 0.228 | 0.208 | 0.214
